Reference: the supplement of paper PMC10307832

Experiments:
Test in all cases: relative viability (nuclei count vs DMSO), 5 days (fraction); higher = more cells survive
EPLC-272H = system: EPLC-272H
How it was run: (§1)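 Relative viability equals treated-well nuclei counts divided by vehicle-well nuclei counts. Counts came from 4× images of lung cancer cell lines grown in 1536-well plates for 5 days after pin-tool dosing on the day after seeding. Dosing used one drug alone or a fixed anchor-drug dose plus five library-drug doses (not always all listed) in √10 steps, and values are medians of duplicate plates.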

H3255 = system: H3255
How it was run: as §1

HARA = system: HARA
How it was run: as §1

LC-2-ad = system: LC-2-ad
How it was run: as §1

LOU-NH91 = system: LOU-NH91
How it was run: as §1

NCI-H1650 = system: NCI-H1650
How it was run: as §1

NCI-H1651 = system: NCI-H1651
How it was run: as §1

NCI-H1975 = system: NCI-H1975
How it was run: as §1

NCI-H2009 = system: NCI-H2009
How it was run: as §1

NCI-H2023 = system: NCI-H2023
How it was run: as §1

NCI-H2085 = system: NCI-H2085
How it was run: as §1

NCI-H2087 = system: NCI-H2087
How it was run: as §1

NCI-H2170 = system: NCI-H2170
How it was run: as §1

NCI-H2228 = system: NCI-H2228
How it was run: as §1

NCI-H23 = system: NCI-H23
How it was run: as §1

NCI-H441 = system: NCI-H441
How it was run: as §1

NCI-H650 = system: NCI-H650
How it was run: as §1

NCI-H727 = system: NCI-H727
How it was run: as §1

NCI-H838 = system: NCI-H838
How it was run: as §1

PC-3 [JPC-3] = system: PC-3 [JPC-3]
How it was run: as §1

SW 1573 = system: SW 1573
How it was run: as §1

SW 900 = system: SW 900
How it was run: as §1

UMC-11 = system: UMC-11
How it was run: as §1

SMILES: Cc1cn(-c2cc(NC(=O)c3ccc(C)c(Nc4nccc(-c5cccnc5)n4)c3)cc(C(F)(F)F)c2)cn1 [Nilotinib] + O=C(c1cc(Cc2n[nH]c(=O)c3ccccc23)ccc1F)N1CCN(C(=O)C2CC2)CC1 [Olaparib] (partner 8 µM)
- relative viability (EPLC-272H; first compound 0.001 µM): 0.605
- relative viability (EPLC-272H; first compound 0.003162 µM): 0.746
- relative viability (EPLC-272H; first compound 0.01 µM): 0.696
- relative viability (EPLC-272H; first compound 0.03162 µM): 0.448
- relative viability (EPLC-272H; first compound 0.1 µM): 0.513
- relative viability (H3255; first compound 0.001 µM): 0.533
- relative viability (H3255; first compound 0.003162 µM): 0.561
- relative viability (H3255; first compound 0.01 µM): 0.572
- relative viability (H3255; first compound 0.03162 µM): 0.474
- relative viability (H3255; first compound 0.1 µM): 0.501
- relative viability (HARA; first compound 0.001 µM): 0.639
- relative viability (HARA; first compound 0.003162 µM): 0.867
- relative viability (HARA; first compound 0.01 µM): 0.676
- relative viability (HARA; first compound 0.03162 µM): 0.535
- relative viability (HARA; first compound 0.1 µM): 0.747
- relative viability (LC-2-ad; first compound 0.001 µM): 0.686
- relative viability (LC-2-ad; first compound 0.003162 µM): 0.755
- relative viability (LC-2-ad; first compound 0.01 µM): 0.689
- relative viability (LC-2-ad; first compound 0.03162 µM): 0.874
- relative viability (LC-2-ad; first compound 0.1 µM): 0.594
- relative viability (LOU-NH91; first compound 0.001 µM): 0.877
- relative viability (LOU-NH91; first compound 0.003162 µM): 1.05
- relative viability (LOU-NH91; first compound 0.01 µM): 1.09
- relative viability (LOU-NH91; first compound 0.03162 µM): 0.94
- relative viability (LOU-NH91; first compound 0.1 µM): 0.997
- relative viability (NCI-H1650; first compound 0.001 µM): 0.776
- relative viability (NCI-H1650; first compound 0.003162 µM): 0.948
- relative viability (NCI-H1650; first compound 0.01 µM): 0.777
- relative viability (NCI-H1650; first compound 0.03162 µM): 0.756
- relative viability (NCI-H1650; first compound 0.1 µM): 1.08
- relative viability (NCI-H1651; first compound 0.001 µM): 0.173
- relative viability (NCI-H1651; first compound 0.003162 µM): 0.187
- relative viability (NCI-H1651; first compound 0.01 µM): 0.168
- relative viability (NCI-H1651; first compound 0.03162 µM): 0.156
- relative viability (NCI-H1651; first compound 0.1 µM): 0.181
- relative viability (NCI-H1975; first compound 0.001 µM): 0.553
- relative viability (NCI-H1975; first compound 0.003162 µM): 0.809
- relative viability (NCI-H1975; first compound 0.01 µM): 0.786
- relative viability (NCI-H1975; first compound 0.03162 µM): 0.491
- relative viability (NCI-H1975; first compound 0.1 µM): 0.63
- relative viability (NCI-H2009; first compound 0.001 µM): 0.588
- relative viability (NCI-H2009; first compound 0.003162 µM): 0.667
- relative viability (NCI-H2009; first compound 0.01 µM): 0.621
- relative viability (NCI-H2009; first compound 0.03162 µM): 0.599
- relative viability (NCI-H2009; first compound 0.1 µM): 0.9
- relative viability (NCI-H2023; first compound 0.001 µM): 0.429
- relative viability (NCI-H2023; first compound 0.003162 µM): 0.486
- relative viability (NCI-H2023; first compound 0.01 µM): 0.599
- relative viability (NCI-H2023; first compound 0.03162 µM): 0.361
- relative viability (NCI-H2023; first compound 0.1 µM): 0.394
- relative viability (NCI-H2085; first compound 0.001 µM): 0.747
- relative viability (NCI-H2085; first compound 0.003162 µM): 0.834
- relative viability (NCI-H2085; first compound 0.01 µM): 0.797
- relative viability (NCI-H2085; first compound 0.03162 µM): 0.889
- relative viability (NCI-H2085; first compound 0.1 µM): 0.684
- relative viability (NCI-H2087; first compound 0.001 µM): 0.529
- relative viability (NCI-H2087; first compound 0.003162 µM): 0.672
- relative viability (NCI-H2087; first compound 0.01 µM): 0.592
- relative viability (NCI-H2087; first compound 0.03162 µM): 0.552
- relative viability (NCI-H2087; first compound 0.1 µM): 0.514
- relative viability (NCI-H2170; first compound 0.001 µM): 0.597
- relative viability (NCI-H2170; first compound 0.003162 µM): 0.662
- relative viability (NCI-H2170; first compound 0.01 µM): 0.647
- relative viability (NCI-H2170; first compound 0.03162 µM): 0.574
- relative viability (NCI-H2170; first compound 0.1 µM): 0.614
- relative viability (NCI-H2228; first compound 0.001 µM): 0.459
- relative viability (NCI-H2228; first compound 0.003162 µM): 0.584
- relative viability (NCI-H2228; first compound 0.01 µM): 0.76
- relative viability (NCI-H2228; first compound 0.03162 µM): 0.384
- relative viability (NCI-H2228; first compound 0.1 µM): 0.835
- relative viability (NCI-H23; first compound 0.001 µM): 0.353
- relative viability (NCI-H23; first compound 0.003162 µM): 0.302
- relative viability (NCI-H23; first compound 0.01 µM): 0.321
- relative viability (NCI-H23; first compound 0.03162 µM): 0.295
- relative viability (NCI-H23; first compound 0.1 µM): 0.331
- relative viability (NCI-H441; first compound 0.001 µM): 0.419
- relative viability (NCI-H441; first compound 0.003162 µM): 0.807
- relative viability (NCI-H441; first compound 0.01 µM): 0.533
- relative viability (NCI-H441; first compound 0.03162 µM): 0.431
- relative viability (NCI-H441; first compound 0.1 µM): 0.534
- relative viability (NCI-H650; first compound 0.001 µM): 0.357
- relative viability (NCI-H650; first compound 0.003162 µM): 0.432
- relative viability (NCI-H650; first compound 0.01 µM): 0.454
- relative viability (NCI-H650; first compound 0.03162 µM): 0.36
- relative viability (NCI-H650; first compound 0.1 µM): 0.344
- relative viability (NCI-H727; first compound 0.001 µM): 0.574
- relative viability (NCI-H727; first compound 0.003162 µM): 0.847
- relative viability (NCI-H727; first compound 0.01 µM): 0.658
- relative viability (NCI-H727; first compound 0.03162 µM): 0.732
- relative viability (NCI-H727; first compound 0.1 µM): 0.732
- relative viability (NCI-H838; first compound 0.001 µM): 0.789
- relative viability (NCI-H838; first compound 0.003162 µM): 1.01
- relative viability (NCI-H838; first compound 0.01 µM): 0.878
- relative viability (NCI-H838; first compound 0.03162 µM): 0.838
- relative viability (NCI-H838; first compound 0.1 µM): 0.759
- relative viability (PC-3 [JPC-3]; first compound 0.001 µM): 1.05
- relative viability (PC-3 [JPC-3]; first compound 0.01 µM): 1.35
- relative viability (PC-3 [JPC-3]; first compound 0.03162 µM): 1.16
- relative viability (PC-3 [JPC-3]; first compound 0.1 µM): 0.829
- relative viability (SW 1573; first compound 0.001 µM): 0.494
- relative viability (SW 1573; first compound 0.003162 µM): 0.614
- relative viability (SW 1573; first compound 0.01 µM): 0.662
- relative viability (SW 1573; first compound 0.03162 µM): 0.364
- relative viability (SW 1573; first compound 0.1 µM): 0.423
- relative viability (SW 900; first compound 0.003162 µM): 0.916
- relative viability (SW 900; first compound 0.01 µM): 0.965
- relative viability (SW 900; first compound 0.03162 µM): 0.77
- relative viability (SW 900; first compound 0.1 µM): 0.776
- relative viability (UMC-11; first compound 0.001 µM): 0.39
- relative viability (UMC-11; first compound 0.003162 µM): 0.384
- relative viability (UMC-11; first compound 0.01 µM): 0.337
- relative viability (UMC-11; first compound 0.03162 µM): 0.341
- relative viability (UMC-11; first compound 0.1 µM): 0.279
